From article PMC10046369, “Low-Affinity/High-Selectivity Dopamine Transport Inhibition Sufficient to Rescue Cognitive Functions in the Aging Rat” (Biomolecules, 2023)

Experiments:
[1] = biological target: T1, human dopamine transporter (hDAT) (Homo sapiens, UniProt Q01959); assay: radioligand competition binding ([3H]BTCP), hDAT expressed in CHO cells; assay type: cell-based
T1 construct: gene SLC6A3

BB2 = biological target: T2, BB2 (Homo sapiens, UniProt P30550); assay: cell-based; set-up: Eurofins Cerep functional GPCR screen, antagonist mode, inhibition of control agonist response; settings: read-out: % Inhibition of Control Agonist Response, Mean
T2 construct: gene GRPR

CCK2 (CCKB) = biological target: T3, CCK2 (CCKB) (Homo sapiens, UniProt P32239); assay: cell-based; set-up: Eurofins Cerep functional GPCR screen, antagonist mode, inhibition of control agonist response; settings: read-out: % Inhibition of Control Agonist Response, Mean
T3 construct: gene CCKBR
T3 sequence (P32239 whole entry): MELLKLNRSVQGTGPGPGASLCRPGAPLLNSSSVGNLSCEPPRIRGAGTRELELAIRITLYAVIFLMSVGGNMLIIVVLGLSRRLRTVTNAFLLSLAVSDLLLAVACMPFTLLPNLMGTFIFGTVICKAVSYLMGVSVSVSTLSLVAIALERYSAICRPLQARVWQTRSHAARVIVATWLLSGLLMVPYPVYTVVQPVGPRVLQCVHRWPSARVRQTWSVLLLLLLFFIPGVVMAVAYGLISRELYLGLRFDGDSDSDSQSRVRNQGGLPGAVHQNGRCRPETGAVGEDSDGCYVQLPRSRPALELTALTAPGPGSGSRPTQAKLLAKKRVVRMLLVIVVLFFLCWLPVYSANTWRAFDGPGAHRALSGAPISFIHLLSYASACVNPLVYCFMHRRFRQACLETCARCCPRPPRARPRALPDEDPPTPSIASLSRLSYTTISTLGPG

T1 sequence (Q01959 whole entry): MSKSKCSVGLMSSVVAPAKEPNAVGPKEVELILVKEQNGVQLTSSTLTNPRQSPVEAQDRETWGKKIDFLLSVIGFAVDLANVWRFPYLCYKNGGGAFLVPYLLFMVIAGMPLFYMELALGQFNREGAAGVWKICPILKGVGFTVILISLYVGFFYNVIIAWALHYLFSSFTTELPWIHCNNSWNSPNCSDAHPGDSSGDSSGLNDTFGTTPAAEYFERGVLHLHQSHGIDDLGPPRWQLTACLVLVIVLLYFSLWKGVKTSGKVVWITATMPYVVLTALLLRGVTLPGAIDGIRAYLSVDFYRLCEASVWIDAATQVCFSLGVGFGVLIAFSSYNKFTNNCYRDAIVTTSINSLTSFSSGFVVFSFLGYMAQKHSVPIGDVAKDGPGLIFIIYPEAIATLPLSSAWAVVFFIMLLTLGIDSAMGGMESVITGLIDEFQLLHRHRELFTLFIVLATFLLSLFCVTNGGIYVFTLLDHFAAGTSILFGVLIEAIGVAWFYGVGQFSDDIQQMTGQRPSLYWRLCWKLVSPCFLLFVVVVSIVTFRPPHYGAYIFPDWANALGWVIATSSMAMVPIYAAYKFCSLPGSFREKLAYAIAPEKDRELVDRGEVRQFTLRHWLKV
T2 sequence (P30550 whole entry): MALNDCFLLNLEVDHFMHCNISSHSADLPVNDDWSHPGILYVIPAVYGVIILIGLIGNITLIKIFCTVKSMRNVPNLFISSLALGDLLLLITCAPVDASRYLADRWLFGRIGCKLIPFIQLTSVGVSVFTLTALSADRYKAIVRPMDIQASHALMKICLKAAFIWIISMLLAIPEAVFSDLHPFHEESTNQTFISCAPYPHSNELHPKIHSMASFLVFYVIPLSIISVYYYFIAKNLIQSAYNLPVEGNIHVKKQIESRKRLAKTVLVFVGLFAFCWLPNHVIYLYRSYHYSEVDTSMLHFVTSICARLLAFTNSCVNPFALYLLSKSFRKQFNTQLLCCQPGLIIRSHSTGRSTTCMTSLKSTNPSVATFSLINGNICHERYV

[O-][S@@+](Cc1cncs1)C(c1ccccc1)c1ccccc1 [S-CE-123, (S)-5-((Benzhydrylsulfinyl)Methyl)Thiazole]
Ki [1]: 610 nM
inhibition at 2.8 µM (BB2): -23.2%
inhibition at 2.8 µM (CCK2 (CCKB)): -6.9%
